These results are taken from patent US5126258A (priority 1988, dated 1992).

What all share (assay type): biochemical, mouse
One data set deals with 21G2. As to the kind of experiment: Hydrolysis of reactant ligands by receptor 21G2. To be noted: for hydrolysis by 21G2: pH 8.0, receptor/ligand uM, time h: 17 1/10, 2, 18 2/10, 24, 20 2/10, 0.33, 5 1/5, 0.33, 22 5/10, 3.5, preliminary. A digest of the protocol:
(§1)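 Reactant ligand was incubated with receptor in 50 mM phosphate buffer, pH 8.0 (some reactions pH 7.2), for the stated hours. The percentage of ligand consumed was measured by C18 HPLC with acetonitrile/water plus 0.1 percent trichloroacetic acid, or by fluorescence for some substrates, alongside spontaneous hydrolysis.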

In another data set the test system is 22F5. As to the kind of experiment: Hydrolysis of reactant ligands by receptor 22F5. To be noted: for hydrolysis by 22F5: pH 8.0, receptor/ligand uM, time h: 17 1/10, 2, 18 2/10, 24, 20 2/10, 0.33, 5 1/5, 0.33, 22 5/10, 3.5, preliminary. The method in brief: as §1
In the next data set the test system is 17G8. As to the kind of experiment: Hydrolysis of reactant ligands by receptor 17G8. The method in brief:
as §1

The next data set deals with 44A2. In words: Hydrolysis of reactant ligands by receptor 44A2. Particulars: for hydrolysis by 44A2: pH 8.0, receptor/ligand uM, time h: 17 1/10, 2, 18 2/10, 24, 20 2/10, 0.33, 5 1/5, 0.33, 22 5/10, 3.5, preliminary. A digest of the protocol:
as §1

The next data set concerns 37G2. As to the kind of experiment: Hydrolysis of reactant ligands by receptor 37G2. To be noted: for hydrolysis by 37G2: pH 8.0, receptor/ligand uM, time h: 17 1/10, 2, 18 2/10, 24, 20 2/10, 0.33, 5 1/5, 0.33, 22 5/10, 3.5, preliminary. A digest of the protocol:
as §1

The next data set has as its system 7E5. In words: Hydrolysis of reactant ligands by receptor 7E5. Particulars: for hydrolysis by 7E5: pH 8.0, receptor/ligand uM, time h: 17 1/10, 2, 18 2/10, 24, 20 2/10, 0.33, 5 1/5, 0.33, 22 5/10, 3.5, preliminary. The method in brief: as §1
The subject of another data set is 13E10. As to the kind of experiment: Hydrolysis of reactant ligands by receptor 13E10. Particulars: for hydrolysis by 13E10: pH 8.0, receptor/ligand uM, time h: 17 1/10, 2, 18 2/10, 24, 20 2/10, 0.33, 5 1/5, 0.33, 22 5/10, 3.5, preliminary. The method in brief:
as §1

The subject of data set [1] is eight monoclonal receptors 21G2, 7E5, 37G2, 13E10, 12C9, 44A2, 17G8 and 22F5. In words: Catalyzed hydrolysis of reactant ligands by the eight QPN1 monoclonal receptors, summary. To be noted: pH 8.0. The protocol: Mice were hyperimmunized with the Compound 13-KLH conjugate over a three to four week time period. Sera were assayed in an ELISA using a Compound 13-BSA conjugate bound to microtiter plate wells as the solid-phase antigen. Cloned hybridomas were also screened using that ELISA assay.
Each of those catalyses could be inhibited by an appropriate analog-ligand. Thus, a relatively high percentage of induced monoclonal receptors was capable of catalyzing an esterolytic reaction. The reason for this relatively high percentage of useful receptors being induced is unknown, but could be due to the presence of phosphonamidate group nitrogen atom, as compared to a phosphonate oxygen atom, or to the quinoline nucleus of the analog-ligand. Those eight catalytic monoclonal receptors and the hybridomas that secrete them are identified by the laboratory designations "QPN1 7E5", "QPN1 12C9", "QPN1 13E10", "QPN1 17G8", "QPN1 21G2", "QPN1 22F5", "QPN1 37G2" and QPN1 44A2. The prefix "QPNI" is sometimes omitted herein when discussing these hybridomas and receptors.
Amide cleavage for Compounds 14 and 15 was assayed by analyzing for the production of free aminoquinaldine or aminonaphthalene by measuring the increase in the azo dye that results from derivatizing the free aminoquinaldine or aminonapthalene with a diazotization reagent.
Catalysis reactions were conducted by preparing a reaction admixture of 100 microliters (ul) total volume containing 5 micromolar (uM) monoclonal antibody, 50-75 uM amide reactant ligand substrate and a buffer described hereinafter. The buffer included in the above admixture varied depending upon the pH utilized as follows: pH 5, 10 […] sodium acetate, 10 mM sodium chloride; pH 7.2, 10 mM sodium phosphate, 0.15 molar (M) sodium chloride; pH 8.0; 50 mM sodium phosphate. The amide-containing substrates screened in this assay were added to the above admixture in 1 ul of a 100-fold concentrated stock solution of dimethyl formamide (DMF). Monoclonal antibody was added to the above admixture from a concentrated stock solution. The resulting admixture was placed into the well of a 96 well flat bottom microtiter plate (Costar, Cambridge, Mass.) and maintained in a moist vapor environment chamber at 23 degrees C. The production of aminoquinaldine or aminonaphthalene was then assayed as described below after 2,3,5, or 6 days.
The aminoquinaldine or aminonapthalene product produced by the catalyzed reaction was measured by first admixing 20 ul of 5M HCl, 80 ul acetone and 10 ul 0.5% (w/v) sodium nitrite to the reaction admixture to form a second admixture and maintaining that second admixture for 3 minutes at room temperature. Thereafter, 10 ul 2.5% (w/v) ammonium sulfamate was added to form a third admixture that was maintained for 2 minutes at room temperature. A still further 10 ul of 0.5% (w/v) N-(1-napthyl)ethylenediamine dihydrochloride was added to form a fourth admixture that was then maintained for 15 minutes at room temperature. Thereafter the resulting azo dye present in the fourth admixture was measured by absorbance spectroscopy at 540 nanometers (nm) for aminoquinaldine using a Model EL 309 Automated Microplate Reader (Bio-Tek Instruments, Winooski, Vt.).

The next data set relates to 1209. In words: Hydrolysis of reactant ligands by receptor 12C9 (column head prints 1209). To be noted: for hydrolysis by 1209: pH 8.0, receptor/ligand uM, time h: 17 1/10, 2, 18 2/10, 24, 20 2/10, 0.33, 5 1/5, 0.33, 22 5/10, 3.5, preliminary. The method in brief: as §1
The mark [2] stands for this setting: pH 7.2, 1 uM receptor, 10 uM ligand, 2 h.

For `CC(=O)Nc1ccc(CC(=O)Oc2cccc3ccccc23)cc1` [Compound 17], the “hydrolysis by 21G2, pH 7.2” value with 21G2 (setting [2]) is given as 10 percentage of reactant ligand. For the same compound, the “hydrolysis by 21G2” value in the data set with 21G2 was 10 percentage of reactant ligand. In addition, the “hydrolysis by 22F5, pH 7.2” value with 22F5 (setting [2]) is 16 percentage of reactant ligand. Moreover, the “hydrolysis by 22F5” value in the data set with 22F5 is recorded as 51 percentage of reactant ligand. Further, in the data set on 17G8 (setting [2]), the “hydrolysis by 17G8, pH 7.2” value is listed as 15 percentage of reactant ligand. Besides, in the data set with 44A2 (setting [2]), the “hydrolysis by 44A2, pH 7.2” value was 19 percentage of reactant ligand. Moreover, the “hydrolysis by 44A2” value with 44A2 is given as 62 percentage of reactant ligand. In the data set with 37G2 (setting [2]), the “hydrolysis by 37G2, pH 7.2” value is 39 percentage of reactant ligand. The “hydrolysis by 37G2” value with 37G2 is on record as 60 percentage of reactant ligand. Moreover, the “hydrolysis by 7E5, pH 7.2” value in the data set with 7E5 (setting [2]) was 35 percentage of reactant ligand. Also, the “hydrolysis by 7E5” value in the data set on 7E5 is recorded as 30 percentage of reactant ligand. Moreover, in the data set with 13E10 (setting [2]), the “hydrolysis by 13E10, pH 7.2” value is 33 percentage of reactant ligand. In the data set with 13E10, the “hydrolysis by 13E10” value is 32 percentage of reactant ligand. In data set [1], the “receptors (of eight) that catalyzed hydrolysis of the compound” value is listed as “all of the receptors catalyzed hydrolysis”. The “hydrolysis by 1209, pH 7.2” value in the data set with 1209 (setting [2]) is reported as 35 percentage of reactant ligand. In addition, the “hydrolysis by 1209” value in the data set with 1209 was 55 percentage of reactant ligand.

`O=C(Cc1ccc(NC(=O)C(F)(F)F)cc1)Oc1ccc2ccc(=O)oc2c1` [Compound 5]: the “hydrolysis by 21G2” value in the data set with 21G2 is 43 percentage of reactant ligand. Moreover, in the data set on 22F5, the “hydrolysis by 22F5” value is on record as 48 percentage of reactant ligand. Moreover, the “hydrolysis by 17G8” value with 17G8 (pH 8.0, receptor/ligand uM, time h: 18 2/10, 24, 20 2/10, 0.33, 5 1/5, 0.33, 22 5/10, 3.5, preliminary) is on record as 16 percentage of reactant ligand. For the same compound, in the data set on 44A2, the “hydrolysis by 44A2” value is on record as 47 percentage of reactant ligand. Moreover, the “hydrolysis by 37G2” value with 37G2 is 12 percentage of reactant ligand. In the data set with 7E5, the “hydrolysis by 7E5” value is 8 percentage of reactant ligand. Besides, the “hydrolysis by 13E10” value with 13E10 is 13 percentage of reactant ligand. Moreover, the “receptors (of eight) that catalyzed hydrolysis of the compound” value in data set [1] is “all of the receptors catalyzed hydrolysis”. For the same compound, the “hydrolysis by 1209” value in the data set on 1209 is 11 percentage of reactant ligand.
